One experiment concerns the target T1, NA transporter (Rattus norvegicus, UniProt Q63380).
T1 construct: synaptosomes were freshly isolated from rat brain regions; from tissue; host or cells: rat hypothalamus synaptosomes (P2 fraction)
Nature of the experiment: Noradrenaline reuptake inhibition (NA uptake inhibition) in synaptosomes. It is filed as biochemical. The note with it: synaptosomes from hypothalamus of male rat brains. As for the experimental part: In order to be able to carry out these in vitro studies, synaptosomes were freshly isolated from rat brain regions. A so-called “P2” fraction was used, which was prepared according to the instructions given by Gray and Whittaker (E. G. Gray and V. P. Whittaker (1962) J. Anat. 76, 79-88).

The test system of experiment [1] is binding site 2 of the sodium channel. Nature of the experiment: Binding investigations at sodium channel binding site 2 (BTX binding). The note with it: rat cerebrocortex synaptosomes; for BTX binding at 10 μM [%] inhibition: [3H]-Batrachotoxinin A20 α-benzoate 10 nM, 37° C., 120 min. As for the experimental part:
Binding Investigations at Sodium Channel Binding Site 2
Binding site 2 of the sodium channel is the so-called batrachotoxin (BTX) binding site. [^3H]-Batrachotoxinin A20 α-benzoate (10 nM in the batch) was used as ligand. These ion channel particles (synaptosomes) were enriched from rat cerebrocortex after Gray and Whittaker (E. G. Gray and V. P. Whittaker (1962) J. Anat. 76, 79-88). The radioactivity measured in the presence of veratridine (0.3 mM in the batch) is defined as non-specific binding.
The assay conditions were as published by Pauwels, Leysen and Laduron (P. J. Pauwels, J. E. Leysen and P. M. Laduron (1986) Eur. J. Pharmacol. 124, 291-298). Incubation at 37° C. for 120 min.

T1 sequence (Q63380 1-617): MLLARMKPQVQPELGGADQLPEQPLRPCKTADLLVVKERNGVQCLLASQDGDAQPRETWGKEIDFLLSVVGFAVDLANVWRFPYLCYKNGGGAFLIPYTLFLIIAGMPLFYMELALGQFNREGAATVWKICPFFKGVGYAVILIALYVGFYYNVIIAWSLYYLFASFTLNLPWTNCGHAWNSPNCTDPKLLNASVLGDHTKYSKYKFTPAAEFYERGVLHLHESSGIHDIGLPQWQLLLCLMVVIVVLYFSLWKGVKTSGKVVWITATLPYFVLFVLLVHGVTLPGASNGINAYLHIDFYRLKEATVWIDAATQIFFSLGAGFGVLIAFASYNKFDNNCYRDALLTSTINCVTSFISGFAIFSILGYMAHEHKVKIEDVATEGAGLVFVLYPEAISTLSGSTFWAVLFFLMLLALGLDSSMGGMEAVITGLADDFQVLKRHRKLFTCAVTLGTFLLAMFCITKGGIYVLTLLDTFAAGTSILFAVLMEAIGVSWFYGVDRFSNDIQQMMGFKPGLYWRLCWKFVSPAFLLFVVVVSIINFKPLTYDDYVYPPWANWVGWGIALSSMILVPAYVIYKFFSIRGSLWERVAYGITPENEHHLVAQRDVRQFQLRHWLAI

`CCC(O)(c1cccc(F)c1)C(C)CN1CCN(c2cccc(Cl)c2)CC1` (centres unmarked) [1-[4-(3-Chloro-phenyl)-piperazin-1-yl]-3-(3-fluoro-phenyl)-2-methyl-pentan-3-ol] displayed an inhibition at 10 µM on NA transporter of 53%. For the molecule `CCC(O)(Cc1ccccc1)C(C)CN1CCN(C)CC1` (centres unmarked) [3-Benzyl-2-methyl-1-(4-methyl-piperazin-1-yl)-pentan-3-ol], the “BTX binding at 10 μM [%] inhibition” value in experiment [1] came to 42%. Same read-out and setting: as for `CCC(O)(c1ccc(C)cc1)C(C)CN1CCN(C)CC1` (centres unmarked) [2-Methyl-1-(4-methyl-piperazin-1-yl)-3-p-tolyl-pentan-3-ol], the figure is 48%.

As for `CCC(O)(c1ccccc1C)C(C)CN1CCN(C)CC1` (centres unmarked) [2-Methyl-1-(4-methyl-piperazin-1-yl)-3-o-tolyl-pentan-3-ol], the “BTX binding at 10 μM [%] inhibition” value in experiment [1] came out at 43%.

Turning to `CCC(O)(c1ccccc1)C(C)CN1CCN(C)CC1` (centres unmarked) [2-Methyl-1-(4-methyl-piperazin-1-yl)-3-phenyl-pentan-3-ol], in experiment [1], the “BTX binding at 10 μM [%] inhibition” value is listed as 58%. As to `CCC(O)(c1ccc(C(C)(C)C)cc1)C(C)CN1CCN(C)CC1` (centres unmarked) [3-(4-tert-Butyl-phenyl)-2-methyl-1-(4-methyl-piperazin-1-yl)-pentan-3-ol], the “BTX binding at 10 μM [%] inhibition” value in experiment [1] is on record as 68%. In the case of `CCC(O)(c1cccc(Cl)c1)C(C)CN1CCN(c2cccc(Cl)c2)CC1` (centres unmarked) [3-(3-Chloro-phenyl)-1-[4-(3-chloro-phenyl)-piperazin-1-yl]-2-methyl-pentan-3-ol], at NA transporter, the inhibition at 10 µM came to 53%. The same measure, in the same setting: as for `CCC(O)(CCc1ccccc1)C(C)CN1CCN(c2cccc(Cl)c2)CC1` (centres unmarked) [1-[4-(3-Chloro-phenyl)-piperazin-1-yl]-3-ethyl-2-methyl-5-phenyl-pentan-3-ol], the figure is 52%. Same read-out and setting: as for `C=CC(O)(CC)C(C)CN1CCN(c2cccc(Cl)c2)CC1` (centres unmarked) [5-[4-(3-Chloro-phenyl)-piperazin-1-yl]-3-ethyl-4-methyl-pent-1-en-3-ol], the figure is 53%.

Take `CN1CCN(CC2CCCCCCC2(O)C2CCCC2)CC1` (centres unmarked) [1-Cyclopentyl-2-(4-methyl-piperazin-1-ylmethyl)-cyclooctanol]: the “BTX binding at 10 μM [%] inhibition” value in experiment [1] turned out to be 48%. Take `CN1CCN(CC2CCCCCC2(O)Cc2ccccc2)CC1` (centres unmarked) [1-Benzyl-2-(4-methyl-piperazin-1-ylmethyl)-cycloheptanol]: the “BTX binding at 10 μM [%] inhibition” value in experiment [1] came out at 86%. For `CCC(O)(c1cccs1)C(C)CN1CCN(c2cccc(Cl)c2)CC1` (centres unmarked) [1-[4-(3-Chloro-phenyl)-piperazin-1-yl]-2-methyl-3-thiophen-2-yl-pentan-3-ol], 10 µM produced 45% inhibition against NA transporter. Still for that read-out and setting: next, `CCC(O)(c1ccccc1)C(C)CN1CCN(c2cccc(Cl)c2)CC1` (centres unmarked) [1-[4-(3-Chloro-phenyl)-piperazin-1-yl]-2-methyl-3-phenyl-pentan-3-ol]: 61%. In the case of `CN1CCN(CC2CCCCCCC2(O)Cc2ccccc2)CC1` (centres unmarked) [1-Benzyl-2-(4-methyl-piperazin-1-ylmethyl)-cyclooctanol], the “BTX binding at 10 μM [%] inhibition” value in experiment [1] is 75%. For `CN1CCN(CC2CCCCCC2(O)C2CCCC2)CC1` (centres unmarked) [1-Cyclopentyl-2-(4-methyl-piperazin-1-ylmethyl)-cycloheptanol], in experiment [1], the “BTX binding at 10 μM [%] inhibition” value is recorded as 55%.

For `CN1CCN(CC2CCCCCCC2(O)c2ccc(C(C)(C)C)cc2)CC1` (centres unmarked) [1-(4-tert-Butyl-phenyl)-2-(4-methyl-piperazin-1-ylmethyl)-cyclooctanol], the “BTX binding at 10 μM [%] inhibition” value in experiment [1] worked out at 64%. On the same count and under the same terms, as for `CCC(O)(CCCc1ccccc1)C(C)CN1CCN(C)CC1` (centres unmarked) [3-Ethyl-2-methyl-1-(4-methyl-piperazin-1-yl)-6-phenyl-hexan-3-ol], the figure is 74%; as for `CN1CCN(CC2CCCCC2(O)Cc2ccccc2)CC1` (centres unmarked) [1-Benzyl-2-(4-methyl-piperazin-1-ylmethyl)-cyclohexanol], 71%. In the case of `CN1CCN(CC2CCCCCC2(O)c2ccc(C(C)(C)C)cc2)CC1` (centres unmarked) [1-(4-tert-Butyl-phenyl)-2-(4-methyl-piperazin-1-ylmethyl)-cycloheptanol], in experiment [1], the “BTX binding at 10 μM [%] inhibition” value was found to be 80%. `CCC(O)(c1ccc(C)cc1)C(C)CN1CCN(c2cccc(Cl)c2)CC1` (centres unmarked) [1-[4-(3-Chloro-phenyl)-piperazin-1-yl]-2-methyl-3-p-tolyl-pentan-3-ol] showed an inhibition at 10 µM against NA transporter of 41%. For the molecule `Cc1ccccc1C1(O)CCCCC1CN1CCN(C)CC1` (centres unmarked) [2-(4-Methyl-piperazin-1-ylmethyl)-1-o-tolyl-cyclohexanol], in experiment [1], the “BTX binding at 10 μM [%] inhibition” value was found to be 50%.

With `CCC(O)(c1ccc(F)c(C)c1)C(C)CN1CCN(C)CC1` (centres unmarked) [3-(4-Fluoro-3-methyl-phenyl)-2-methyl-1-(4-methyl-piperazin-1-yl)-pentan-3-ol], in experiment [1], the “BTX binding at 10 μM [%] inhibition” value is listed as 56%.

As for `CCC(O)(c1ccc(OC)cc1)C(C)CN1CCN(c2cccc(Cl)c2)CC1` (centres unmarked) [1-[4-(3-Chloro-phenyl)-piperazin-1-yl]-3-(4-methoxy-phenyl)-2-methyl-pentan-3-ol], the inhibition at 10 µM against NA transporter stood at 45%. Same read-out and setting: as for `CCC(O)(Cc1cccc(C)c1)C(C)CN1CCN(c2cccc(Cl)c2)CC1` (centres unmarked) [1-[4-(3-Chloro-phenyl)-piperazin-1-yl]-2-methyl-3-(3-methyl-benzyl)-pentan-3-ol], the figure is 55%; as for `CCC(O)(Cc1ccccc1)C(C)CN1CCN(c2cccc(Cl)c2)CC1` (centres unmarked) [3-Benzyl-1-[4-(3-chloro-phenyl)-piperazin-1-yl]-2-methyl-pentan-3-ol], 55%. In the case of `CCC(O)(Cc1ccc(Cl)cc1)C(C)CN1CCN(c2cccc(Cl)c2)CC1` (centres unmarked) [3-(4-Chloro-benzyl)-1-[4-(3-chloro-phenyl)-piperazin-1-yl]-2-methyl-pentan-3-ol], 10 µM produced 39% inhibition at NA transporter. Take `CCC(O)(c1ccc(Cl)cc1)C(C)CN1CCN(C)CC1` (centres unmarked) [3-(4-Chloro-phenyl)-2-methyl-1-(4-methyl-piperazin-1-yl)-pentan-3-ol]: the “BTX binding at 10 μM [%] inhibition” value in experiment [1] came to 59%. Molecule `CCC(O)(c1cccc(C(F)(F)F)c1)C(C)CN1CCN(c2cccc(Cl)c2)CC1` (centres unmarked) [1-[4-(3-Chloro-phenyl)-piperazin-1-yl]-2-methyl-3-(3-trifluoromethyl-phenyl)-pentan-3-ol] displayed an inhibition at 10 µM on NA transporter of 65%.

On to `CN1CCN(CC2CCCCC2(O)C2CCCC2)CC1` (centres unmarked) [1-Cyclopentyl-2-(4-methyl-piperazin-1-ylmethyl)-cyclohexanol], for which the “BTX binding at 10 μM [%] inhibition” value in experiment [1] amounted to 49%. In the case of “[^3H]-Batrachotoxinin A20 α-benzoate [reference compound]”, the Kd in experiment [1] (radioligand, read-out: KD value for this binding site) amounted to 24.6 nM.

As to `CN1CCN(CC2CCCCC2(O)C2CCCCC2)CC1` (centres unmarked) [2-(4-Methyl-piperazin-1-ylmethyl)-bicyclohexyl-1-ol], the “BTX binding at 10 μM [%] inhibition” value in experiment [1] is given as 63%. `CCC(O)(c1ccc(F)c(C)c1)C(C)CN1CCN(c2cccc(Cl)c2)CC1` (centres unmarked) [1-[4-(3-Chloro-phenyl)-piperazin-1-yl]-3-(4-fluoro-3-methyl-phenyl)-2-methyl-pentan-3-ol] registered an inhibition at 10 µM at NA transporter of 39%. `CCC(O)(C(C)CN1CCN(c2cccc(Cl)c2)CC1)C1CCCCC1` (centres unmarked) [1-[4-(3-Chloro-phenyl)-piperazin-1-yl]-3-cyclohexyl-2-methyl-pentan-3-ol]: at NA transporter, the inhibition at 10 µM came out at 73%. For `CCC(O)(c1cccs1)C(C)CN1CCN(C)CC1` (centres unmarked) [2-Methyl-1-(4-methyl-piperazin-1-yl)-3-thiophen-2-yl-pentan-3-ol], the “BTX binding at 10 μM [%] inhibition” value in experiment [1] amounted to 47%. As for `CCC(O)(c1ccc(Cl)cc1)C(C)CN1CCN(c2cccc(Cl)c2)CC1` (centres unmarked) [3-(4-Chloro-phenyl)-1-[4-(3-chloro-phenyl)-piperazin-1-yl]-2-methyl-pentan-3-ol], the inhibition at 10 µM on NA transporter turned out to be 54%. On the same count and under the same terms, next, `CCC(O)(c1ccc(C(C)(C)C)cc1)C(C)CN1CCN(c2cccc(Cl)c2)CC1` (centres unmarked) [3-(4-tert-Butyl-phenyl)-1-[4-(3-chloro-phenyl)-piperazin-1-yl]-2-methyl-pentan-3-ol]: 62%. Take `C=CC(O)(CC)C(C)CN1CCN(C)CC1` (centres unmarked) [3-Ethyl-4-methyl-5-(4-methyl-piperazin-1-yl)-pent-1-en-3-ol]: the “BTX binding at 10 μM [%] inhibition” value in experiment [1] came to 67%. Turning to `Cc1cccc(C2(O)CCCCCC2CN2CCN(C)CC2)c1` (centres unmarked) [2-(4-Methyl-piperazin-1-ylmethyl)-1-m-tolyl-cycloheptanol], the “BTX binding at 10 μM [%] inhibition” value in experiment [1] was 44%. Same read-out and setting: next, `COc1ccc(C2(O)CCCCCCC2CN2CCN(C)CC2)cc1` (centres unmarked) [1-(4-Methoxy-phenyl)-2-(4-methyl-piperazin-1-ylmethyl)-cyclooctanol]: 42%; `CN1CCN(CC2CCCCCCC2(O)c2cccs2)CC1` (centres unmarked) [2-(4-Methyl-piperazin-1-ylmethyl)-1-thiophen-2-yl-cyclooctanol]: 64%; `CN1CCN(CC2CCCCCCC2(O)CCCc2ccccc2)CC1` (centres unmarked) [2-(4-Methyl-piperazin-1-ylmethyl)-1-(3-phenyl-propyl)-cyclooctanol]: 87%. On to `CCC(O)(C(C)CN1CCN(C)CC1)C1CCCCC1` (centres unmarked) [3-Cyclohexyl-2-methyl-1-(4-methyl-piperazin-1-yl)-pentan-3-ol], for which the “BTX binding at 10 μM [%] inhibition” value in experiment [1] was determined as 59%. Still for that read-out and setting: as for `CN1CCN(CC2CCCCC2(O)CCCc2ccccc2)CC1` (centres unmarked) [2-(4-Methyl-piperazin-1-ylmethyl)-1-(3-phenyl-propyl)-cyclohexanol], the figure is 80%; as for `CN1CCN(CC2CCCCC2(O)c2ccc(Cl)cc2Cl)CC1` (centres unmarked) [1-(2,4-Dichloro-phenyl)-2-(4-methyl-piperazin-1-ylmethyl)-cyclohexanol], 55%.

As usually defined, the inhibition is the relative decrease from the control value, in per cent. Lower therefore signals a response near the control. The Kd is the equilibrium constant for the complex coming apart.

Values taken from patent US7390812B2, “N, N'-disubstituted piperazine compounds and their use as analgesics” (Gruenenthal GmbH, priority 2001, dated 2008).
